Source: patent US20260184693A1, “INHIBITORS OF SOLUTE CARRIER FAMILY 6A MEMBER 19 (SLC6A19) AND METHODS OF USE THEREOF” (Maze Therapeutics, Inc., priority 2022, published 2026)

Assays:
[1] = biological target: T1, human SLC6A19 (Homo sapiens, UniProt Q695T7); assay: Example B-1: L-[3H]leucine uptake, liquid scintillation, in CHO cells with doxycycline-inducible expression of human SLC6A19 and TMEM27; format: cell-based; conditions: read-out: SLC6A19_Radioligand Uptake Assay IC50
T1 construct: expressed in transfected cells
T1 sequence (Q695T7 1-634): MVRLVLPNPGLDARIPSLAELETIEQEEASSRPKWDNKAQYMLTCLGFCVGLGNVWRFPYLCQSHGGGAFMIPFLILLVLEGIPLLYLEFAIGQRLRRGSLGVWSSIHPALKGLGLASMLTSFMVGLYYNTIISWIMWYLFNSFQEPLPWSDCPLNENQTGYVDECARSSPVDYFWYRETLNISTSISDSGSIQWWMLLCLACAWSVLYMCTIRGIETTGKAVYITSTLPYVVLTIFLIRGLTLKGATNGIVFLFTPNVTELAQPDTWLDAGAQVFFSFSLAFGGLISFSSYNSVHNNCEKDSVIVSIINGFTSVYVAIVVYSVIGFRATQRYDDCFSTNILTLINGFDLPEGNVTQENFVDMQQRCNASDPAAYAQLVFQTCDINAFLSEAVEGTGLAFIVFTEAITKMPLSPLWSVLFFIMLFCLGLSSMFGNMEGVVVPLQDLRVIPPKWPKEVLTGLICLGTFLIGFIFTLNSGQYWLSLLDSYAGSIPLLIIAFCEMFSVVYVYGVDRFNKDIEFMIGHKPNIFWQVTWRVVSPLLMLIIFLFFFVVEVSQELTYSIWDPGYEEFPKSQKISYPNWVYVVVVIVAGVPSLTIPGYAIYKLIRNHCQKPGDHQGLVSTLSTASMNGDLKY
T1 sequence (Q9HBJ8 15-222 partner): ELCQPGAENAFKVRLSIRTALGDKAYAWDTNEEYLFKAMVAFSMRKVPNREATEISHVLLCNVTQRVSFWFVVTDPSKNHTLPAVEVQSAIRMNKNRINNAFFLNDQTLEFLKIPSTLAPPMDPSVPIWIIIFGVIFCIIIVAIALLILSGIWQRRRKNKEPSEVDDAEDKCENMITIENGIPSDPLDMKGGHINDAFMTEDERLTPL
Method: CHO cells with doxycycline-inducible expression of human SLC6A19 and TMEM27 were maintained in T150 cell culture treated flasks using cell culture media, which consisted of 1×DMEM/F12 (Gibco, 11330057), 10% Tet System-Approved FBS (Gibco, A4736401), 100 U/mL Penicillin-Streptomycin (Gibco, 15140122), 1×GlutaMAX™ Supplement (Gibco, 35050061), 1 mM Sodium Pyruvate (Gibco, 11360070), 1.1 mg/mL Sodium Bicarbonate (Gibco, 25080094), 5 μg/mL Blasticidin (InvivoGen, ant-bl-1), 150 μg/mL Hygromycin B Gold (InvivoGen, ant-hg-5), and 500 μg/mL G418 (Sigma-Aldrich, G8168-100 mL). In preparation for the assay, this media was aspirated and 5 mL of TryμLE™ Express Enzyme (Gibco, 12605010) was added to each flask to initiate cell dissociation. The flasks were then incubated (humidified, 37° C. with 5% CO2) for 2 minutes. After incubation, 10 mL of pre-warmed cell culture media was added to each flask. The cell suspension was collected and centrifuged for 5 minutes at 200xg.
The supernatant was aspirated and the pellet was resuspended in 5 mL pre-warmed cell culture media. The resuspended cells were counted using the Countess Cell Counting Chamber (Invitrogen) and the cell concentration of the suspension was readjusted to 1 million live cells/mL using pre-warmed cell culture media. 25 uL/well (25,000 cells/well) of readjusted cell suspension was dispensed into Poly-D-Lysine 384-well white/clear plates (Corning, 354660) using a MultiDrop Combi (Thermo Electron Corp). To induce expression of Human SLC6A19 and TMEM27, 25 uL/well of cell culture media containing 2 μg/mL doxycycline was added to the first 23 columns of each plate resulting in a final concentration of […] doxycycline. 25 μL/well of cell culture media was added to the last column of each plate, to act as negative control wells for Human SLC6A19 and TMEM27 expression. Assay plates were then incubated (humidified, 37° C. with 5% CO2) for 18 hours. After incubation, the media was aspirated and the wells were washed 4 times with pre-warmed HBSS (Sigma-Aldrich, H8264-1L) using an Apricot S-Pipette S2 (Apricot Designs), such that 5 uL/well HBSS was remaining at the end of each wash. […] At this step, the final in-well DMSO concentration in the assay plate is 0.5%. All compounds were plated in a duplicate 8-point dilution series that consisted of 3-fold dilutions. […] Afterwards, 15 uL/well of 3.2 mM hot:cold leucine solution (1:15000 ratio of L-[3,4,5-3H(N)] Leucine (Perkin Elmer, NET460001MC) to L-Leucine (Sigma-Aldrich, L8912-25G) diluted with HBSS (Sigma-Aldrich, H8264-1L)) was added using the Viaflo 384 (Integra), for a final concentration of 1.6 mM hot:cold leucine solution. The plates were then incubated (humidified, 37° C. with 5% CO2) for 20 minutes to conduct the uptake reaction. Immediately after the incubation, the plates were washed 4 times with HBSS (Sigma-Aldrich, H8264-1L) using the ELx405 Microplate Washer (Biotek) to terminate the uptake reaction. After the washes, 50 uL/well Ultima Gold Scintillation Cocktail (Perkin Elmer, 6013326) was added to each well using the Viaflo 384 (Integra). The plates were then incubated (humidified, 37° C. with 5% CO2) on a plate shaker at 200 rpm for 2 hours. After incubation, the plates were removed from the shaker and kept at room temperature for 15 minutes.
Liquid scintillation analysis was performed using the MicroBeta2 Microplate Counter (Perkin Elmer). Activity (%) was derived by normalizing the average of positive control compound treated wells to 0% and the average of DMSO (negative control) wells to 100%. Collaborative Drug Discovery software was used for graphing data.

[2] = biological target: T1, human SLC6A19; assay: Example B2: 13C6,15N-isoleucine uptake, RapidFire mass spectrometry, in CHO cells with doxycycline-inducible expression of human SLC6A19 and TMEM27; format: cell-based; conditions: read-out: SLC6A19_RapidFire Uptake Assay IC50
How it was run: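 CHO cells were induced with doxycycline to express human SLC6A19 with TMEM27, then pre-incubated 20 min at 37 °C with compounds (2-fold, 10-point, duplicate). Uptake of 13C6,15N-isoleucine (2 mM solution added) over a further 20 min was measured by RapidFire mass spectrometry, using 13C-leucine as internal standard.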

IC50 [1] [nM] | IC50 [2] [nM] | Structure (SMILES)
2170 | 4870 | CC(=O)N1CC[C@@H](C)[C@@H](N(C)C(=O)NCc2cc3cc(Cl)ccc3[nH]2)C1 (racemic) [Compound 203, 1-((3R,4R and 3S,4S)-1-acetyl-4-methylpiperidin-3-yl)-3-((5-chloro-1H-indol-2-yl)methyl)-1-methylurea]
262 | 153 | CC(=O)N1C[C@@H](C)C[C@@H](N(C)C(=O)NCc2cc3cc(Cl)ccc3[nH]2)C1 (racemic) [Compound 243, 1-((3R,5S and 3S,5R)-1-acetyl-5-methylpiperidin-3-yl)-3-((5-chloro-1H-indol-2-yl)methyl)-1-methylurea]
> 50000 | > 50000 | CC(=O)N1C[C@@H](N(C)C(=O)NCc2cc3cc(Cl)ccc3[nH]2)CC[C@H]1C (single isomer, unassigned) [Compound 193, 1-((3S,6R or 3R,6S)-1-acetyl-6-methylpiperidin-3-yl)-3-((5-chloro-1H-indol-2-yl)methyl)-1-methylurea]
629 | 839 | CN(C(=O)NCc1cc2cc(Cl)ccc2[nH]1)[C@@H]1CCCN(C(=O)C2CC(O)C2)C1 (stereo partly drawn) [Compound 119, (R)-3-((5-chloro-1H-indol-2-yl)methyl)-1-(1-(3-hydroxycyclobutane-1-carbonyl)piperidin-3-yl)-1-methylurea]
574 | 949 | CN(C(=O)NCc1cc2cc(Cl)ccc2[nH]1)[C@@H]1CCCN(C(=O)CC2CCC2)C1 [Compound 120, (R)-3-((5-chloro-1H-indol-2-yl)methyl)-1-(1-(2-cyclobutylacetyl)piperidin-3-yl)-1-methylurea]
280 | 405 | CN(C(=O)NCc1cc2cc(Cl)ccc2[nH]1)[C@@H]1CCCN(C(=O)C2CC(CO)C2)C1 (stereo partly drawn) [Compound 121, (R)-3-((5-chloro-1H-indol-2-yl)methyl)-1-(1-(3-(hydroxymethyl)cyclobutane-1-carbonyl)piperidin-3-yl)-1-methylurea]
162 | 326 | CC(=O)N1CCC[C@@H](N(C)C(=O)NCc2cc3cc(Cl)c(OCc4cc(C)on4)cc3[nH]2)C1 [Compound 135, (R)-1-(1-acetylpiperidin-3-yl)-3-((5-chloro-6-((5-methylisoxazol-3-yl)methoxy)-1H-indol-2-yl)methyl)-1-methylurea]
359 | 273 | CCN(C(=O)NCc1cc2cc(Cl)c(OCc3ccon3)cc2[nH]1)[C@@H]1CCCN(C(C)=O)C1 [Compound 137, (R)-1-(1-acetylpiperidin-3-yl)-3-((5-chloro-6-(isoxazol-3-ylmethoxy)-1H-indol-2-yl)methyl)-1-ethylurea]
183 | 195 | CC(=O)N1CCC[C@@H](N(C)C(=O)NCc2cc3cc(Cl)ccc3[nH]2)C1 [Compound 147, (R)-1-(1-acetylpiperidin-3-yl)-3-((5-chloro-1H-indol-2-yl)methyl)-1-methylurea]
145 | 49.4 | CCN(C(=O)NCc1cc2cc(Cl)ccc2[nH]1)[C@@H]1CCCN(C(C)=O)C1 [Compound 163, (R)-1-(1-acetylpiperidin-3-yl)-3-((5-chloro-1H-indol-2-yl)methyl)-1-ethylurea]
150 | 80.6 | CNC(=O)N1CCC[C@@H](N(C)C(=O)NCc2cc3cc(Cl)ccc3[nH]2)C1 [Compound 171, (R)-3-(3-((5-chloro-1H-indol-2-yl)methyl)-1-methylureido)-N-methylpiperidine-1-carboxamide]
1230 | 2770 | Cc1ocnc1C(=O)N1CCC[C@@H](N(C)C(=O)NCc2cc3cc(Cl)ccc3[nH]2)C1 [Compound 187, (R)-3-((5-chloro-1H-indol-2-yl)methyl)-1-methyl-1-(1-(5-methyloxazole-4-carbonyl)piperidin-3-yl)urea]
656 | 947 | CN(C(=O)NCc1cc2cc(Cl)ccc2[nH]1)[C@@H]1CCCN(C(=O)Cc2ccncc2)C1 [Compound 188, (R)-3-((5-chloro-1H-indol-2-yl)methyl)-1-methyl-1-(1-(2-(pyridin-4-yl)acetyl)piperidin-3-yl)urea]
264 | 380 | CN(C(=O)NCc1cc2cc(Cl)ccc2[nH]1)[C@@H]1CCCN(C(=O)c2ccc(O)cc2)C1 [Compound 189, (R)-3-((5-chloro-1H-indol-2-yl)methyl)-1-(1-(4-hydroxybenzoyl)piperidin-3-yl)-1-methylurea]
483 | 578 | CN(C(=O)NCc1cc2cc(Cl)ccc2[nH]1)[C@@H]1CCCN(C(=O)c2cccc(O)c2)C1 [Compound 190, (R)-3-((5-chloro-1H-indol-2-yl)methyl)-1-(1-(3-hydroxybenzoyl)piperidin-3-yl)-1-methylurea]
151 | 312 | CN(C(=O)NCc1cc2cc(Cl)ccc2[nH]1)[C@@H]1CCCN(C(=O)c2ccn[nH]2)C1 [Compound 191, (R)-1-(1-(1H-pyrazole-5-carbonyl)piperidin-3-yl)-3-((5-chloro-1H-indol-2-yl)methyl)-1-methylurea]
637 |  | CN(C(=O)NCc1cc2cc(Cl)ccc2[nH]1)[C@@H]1CCCN(C(=O)CCO)C1 [Compound 215, (R)-3-((5-chloro-1H-indol-2-yl)methyl)-1-(1-(3-hydroxypropanoyl)piperidin-3-yl)-1-methylurea]
807 |  | CN(C(=O)NCc1cc2cc(Cl)ccc2[nH]1)[C@@H]1CCCN(C(=O)N2CC(F)(F)C2)C1 [Compound 216, (R)-3-((5-chloro-1H-indol-2-yl)methyl)-1-(1-(3,3-difluoroazetidine-1-carbonyl)piperidin-3-yl)-1-methylurea]
1160 |  | CN(C(=O)NCc1cc2cc(Cl)ccc2[nH]1)[C@@H]1CCCN(C(=O)Cc2cnoc2)C1 [Compound 246, (R)-3-((5-chloro-1H-indol-2-yl)methyl)-1-(1-(2-(isoxazol-4-yl)acetyl)piperidin-3-yl)-1-methylurea]
